Assay results: paper PMC9481151, “Discovery of new symmetrical and asymmetrical nitrile-containing 1,4-dihydropyridine derivatives as dual kinases and P-glycoprotein inhibitors: synthesis, in vitro assays, and in silico studies” (Journal of Enzyme Inhibition and Medicinal Chemistry, 2022)

Tests used:
NCI-H23 = assay: NCI single dose (10 µM) SRB screen; format: cell-based, human; conditions: non-small cell lung cancer, 48 h
OVCAR-3 = assay: NCI single dose (10 µM) SRB screen; format: cell-based, human; conditions: ovarian cancer, 48 h
Staphylococcus aureus = assay: Agar well diffusion method
SN12C = assay: NCI single dose (10 µM) SRB screen; format: cell-based, human; conditions: renal cancer, 48 h
U251 = assay: NCI single dose (10 µM) SRB screen; format: cell-based, human; conditions: CNS cancer, 48 h
NCI-H460 = assay: NCI single dose (10 µM) SRB screen; format: cell-based, human; conditions: non-small cell lung cancer, 48 h
T-47D = assay: NCI single dose (10 µM) SRB screen; format: cell-based, human; conditions: breast cancer, 48 h
SK-MEL-5 = assay: NCI single dose (10 µM) SRB screen; format: cell-based, human; conditions: melanoma, 48 h
K-562 = assay: NCI single dose (10 µM) SRB screen; format: cell-based, human; conditions: leukaemia, 48 h
SK-OV-3 = assay: NCI single dose (10 µM) SRB screen; format: cell-based, human; conditions: ovarian cancer, 48 h
HOP-92 = assay: NCI single dose (10 µM) SRB screen; format: cell-based, human; conditions: non-small cell lung cancer, 48 h
MDA-MB-435 = assay: NCI single dose (10 µM) SRB screen; format: cell-based, human; conditions: melanoma, 48 h
SF-268 = assay: NCI single dose (10 µM) SRB screen; format: cell-based, human; conditions: CNS cancer, 48 h
NCI 60 cancer cell lines = assay: NCI single dose (10 µM) SRB screen, mean over panel; format: cell-based, human; conditions: mean over 60 cell lines, 48 h
Pseudomonas aeruginosa = assay: Agar well diffusion method
KM12 = assay: NCI single dose (10 µM) SRB screen; format: cell-based, human; conditions: colon cancer, 48 h
CCRF-CEM = assay: NCI single dose (10 µM) SRB screen; format: cell-based, human; conditions: leukaemia, 48 h
MALME-3M = assay: NCI single dose (10 µM) SRB screen; format: cell-based, human; conditions: melanoma, 48 h
SK-MEL-28 = assay: NCI single dose (10 µM) SRB screen; format: cell-based, human; conditions: melanoma, 48 h
IGROV1 = assay: NCI single dose (10 µM) SRB screen; format: cell-based, human; conditions: ovarian cancer, 48 h
SNB-19 = assay: NCI single dose (10 µM) SRB screen; format: cell-based, human; conditions: CNS cancer, 48 h
HT29 = assay: NCI single dose (10 µM) SRB screen; format: cell-based, human; conditions: colon cancer, 48 h
COLO 205 = assay: NCI single dose (10 µM) SRB screen; format: cell-based, human; conditions: colon cancer, 48 h
SF-295 = assay: NCI single dose (10 µM) SRB screen; format: cell-based, human; conditions: CNS cancer, 48 h
MDA-MB-468 = assay: NCI single dose (10 µM) SRB screen; format: cell-based, human; conditions: breast cancer, 48 h
HCT-15 = assay: NCI single dose (10 µM) SRB screen; format: cell-based, human; conditions: colon cancer, 48 h
HCC-2998 = assay: NCI single dose (10 µM) SRB screen; format: cell-based, human; conditions: colon cancer, 48 h
PC-3 = assay: NCI single dose (10 µM) SRB screen; format: cell-based, human; conditions: prostate cancer, 48 h
HCT-116 = assay: NCI single dose (10 µM) SRB screen; format: cell-based, human; conditions: colon cancer, 48 h
NCI-H226 = assay: NCI single dose (10 µM) SRB screen; format: cell-based, human; conditions: non-small cell lung cancer, 48 h
DU-145 = assay: NCI single dose (10 µM) SRB screen; format: cell-based, human; conditions: prostate cancer, 48 h
MOLT-4 = assay: NCI single dose (10 µM) SRB screen; format: cell-based, human; conditions: leukaemia, 48 h
RPMI-8226 = assay: NCI single dose (10 µM) SRB screen; format: cell-based, human; conditions: leukaemia, 48 h
NCI-H522 = assay: NCI single dose (10 µM) SRB screen; format: cell-based, human; conditions: non-small cell lung cancer, 48 h
MDA-MB-231 = assay: NCI single dose (10 µM) SRB screen; format: cell-based, human; conditions: breast cancer, 48 h
Bacillus subtilis = assay: Agar well diffusion method
SNB-75 = assay: NCI single dose (10 µM) SRB screen; format: cell-based, human; conditions: CNS cancer, 48 h
NCI/ADR-RES = assay: NCI single dose (10 µM) SRB screen; format: cell-based, human; conditions: ovarian cancer, 48 h
Escherichia coli = assay: Agar well diffusion method
786-0 = assay: NCI single dose (10 µM) SRB screen; format: cell-based, human; conditions: renal cancer, 48 h
SR = assay: NCI single dose (10 µM) SRB screen; format: cell-based, human; conditions: leukaemia, 48 h
M14 = assay: NCI single dose (10 µM) SRB screen; format: cell-based, human; conditions: melanoma, 48 h
HOP-62 = assay: NCI single dose (10 µM) SRB screen; format: cell-based, human; conditions: non-small cell lung cancer, 48 h
EKVX = assay: NCI single dose (10 µM) SRB screen; format: cell-based, human; conditions: non-small cell lung cancer, 48 h
LOX IMVI = assay: NCI single dose (10 µM) SRB screen; format: cell-based, human; conditions: melanoma, 48 h
SK-MEL-2 = assay: NCI single dose (10 µM) SRB screen; format: cell-based, human; conditions: melanoma, 48 h
SW-620 = assay: NCI single dose (10 µM) SRB screen; format: cell-based, human; conditions: colon cancer, 48 h
Candida albicans = assay: Agar well diffusion method
OVCAR-5 = assay: NCI single dose (10 µM) SRB screen; format: cell-based, human; conditions: ovarian cancer, 48 h
HS578T = assay: NCI single dose (10 µM) SRB screen; format: cell-based, human; conditions: breast cancer, 48 h
TK-10 = assay: NCI single dose (10 µM) SRB screen; format: cell-based, human; conditions: renal cancer, 48 h

CCOC(=O)C1=C(C)NC(C)=C(C(=O)OCC)C1c1cccc(C#N)c1 [Compound 1b, Diethyl 4-(3-cyanophenyl)-2,6-dimethyl-1,4-dihydropyridine-3,5-dicarboxylate]
GI% NCI-H23 (NCI-H23): – (Only GI% ≥ 10 are shown)
GI% OVCAR-3 (OVCAR-3): – (Only GI% ≥ 10 are shown)
zone of inhibition at 1000 µg/mL (Staphylococcus aureus; Staphylococcus aureus, 24 h, read-out: Diameter of inhibition zone, S. aureus): 14 mm
% activity index, S. aureus (Staphylococcus aureus; relative to ciprofloxacin): 58.3%
GI% SN12C (SN12C): – (Only GI% ≥ 10 are shown)
GI% U251 (U251): – (Only GI% ≥ 10 are shown)
GI% NCI-H460 (NCI-H460): – (Only GI% ≥ 10 are shown)
GI% T-47D (T-47D): 23%
GI% SK-MEL-5 (SK-MEL-5): – (Only GI% ≥ 10 are shown)
GI% K-562 (K-562): 43%
GI% SK-OV-3 (SK-OV-3): – (Only GI% ≥ 10 are shown)
GI% HOP-92 (HOP-92): 10%
GI% MDA-MB-435 (MDA-MB-435): 42%
GI% SF-268 (SF-268): – (Only GI% ≥ 10 are shown)
Mean GI% (NCI 60 cancer cell lines): 8%
zone of inhibition at 1000 µg/mL (Pseudomonas aeruginosa; Pseudomonas aeruginosa, 24 h, read-out: Diameter of inhibition zone, P. aeruginosa): 10 mm
% activity index, P. aeruginosa (Pseudomonas aeruginosa; relative to ciprofloxacin): 43.5%
GI% KM12 (KM12): 27%
GI% CCRF-CEM (CCRF-CEM): – (Only GI% ≥ 10 are shown)
GI% MALME-3M (MALME-3M): – (Only GI% ≥ 10 are shown)
GI% SK-MEL-28 (SK-MEL-28): – (Only GI% ≥ 10 are shown)
GI% IGROV1 (IGROV1): – (Only GI% ≥ 10 are shown)
GI% SNB-19 (SNB-19): – (Only GI% ≥ 10 are shown)
GI% HT29 (HT29): – (Only GI% ≥ 10 are shown)
GI% COLO 205 (COLO 205): – (Only GI% ≥ 10 are shown)
GI% SF-295 (SF-295): – (Only GI% ≥ 10 are shown)
GI% MDA-MB-468 (MDA-MB-468): 22%
GI% HCT-15 (HCT-15): 23%
GI% HCC-2998 (HCC-2998): – (Only GI% ≥ 10 are shown)
GI% PC-3 (PC-3): 20%
GI% HCT-116 (HCT-116): 11%
GI% NCI-H226 (NCI-H226): – (Only GI% ≥ 10 are shown)
GI% DU-145 (DU-145): – (Only GI% ≥ 10 are shown)
GI% MOLT-4 (MOLT-4): – (Only GI% ≥ 10 are shown)
GI% RPMI-8226 (RPMI-8226): – (Only GI% ≥ 10 are shown)
GI% NCI-H522 (NCI-H522): 12%
GI% MDA-MB-231 (MDA-MB-231): – (Only GI% ≥ 10 are shown)
zone of inhibition at 1000 µg/mL (Bacillus subtilis; Bacillus subtilis, 24 h, read-out: Diameter of inhibition zone, B. subtilis): 9 mm
% activity index, B. subtilis (Bacillus subtilis; relative to ciprofloxacin): 39.1%
GI% SNB-75 (SNB-75): 38%
GI% NCI/ADR-RES (NCI/ADR-RES): – (Only GI% ≥ 10 are shown)
zone of inhibition at 1000 µg/mL (Escherichia coli; Escherichia coli, 24 h, read-out: Diameter of inhibition zone, E. coli): 7 mm
% activity index, E. coli (Escherichia coli; relative to ciprofloxacin): 26.9%
GI% 786-0 (786-0): – (Only GI% ≥ 10 are shown)
GI% SR (SR): 48%
GI% M14 (M14): – (Only GI% ≥ 10 are shown)
GI% HOP-62 (HOP-62): – (Only GI% ≥ 10 are shown)
GI% EKVX (EKVX): – (Only GI% ≥ 10 are shown)
GI% LOX IMVI (LOX IMVI): – (Only GI% ≥ 10 are shown)
GI% SK-MEL-2 (SK-MEL-2): – (Only GI% ≥ 10 are shown)
GI% SW-620 (SW-620): – (Only GI% ≥ 10 are shown)
zone of inhibition at 1000 µg/mL (Candida albicans; Candida albicans, 24 h, read-out: Diameter of inhibition zone, C. albicans): 15 mm
% activity index, C. albicans (Candida albicans; relative to clotrimazole): 55.5%
GI% OVCAR-5 (OVCAR-5): – (Only GI% ≥ 10 are shown)
GI% HS578T (HS578T): 16%
GI% TK-10 (TK-10): – (Only GI% ≥ 10 are shown)
